Tests used:
[1] = system: recurrent myocardial infarction (RMI) in CARE patients; test: CARE trial: recurrent MI in pravastatin- vs placebo-treated patients stratified by SNP genotype; assay type: in vivo, human; conditions: for HR, on-trial MI, Unadjusted: placebo = ref 1.00; for HR, on-trial MI, Adjusted: placebo = ref 1.00, adjusted for age, smoking, hypertension, diabetes, BMI, LDL-C, HDL-C; for OR_dom, risk of RMI / OR_het, risk of RMI / OR_maj, risk of RMI / OR_min, risk of RMI / OR, risk of RMI: placebo- vs. pravastatin-treated patients; for Risk Reduction by Statin (Pravastatin vs. Placebo) OR: odds ratio of recurrent MI, pravastatin- vs placebo-treated, heterozygous carriers of hCV3054799 only
Description: In order to identify genetic markers associated with acute coronary events (e.g. MI, stroke, unstable angina, congestive heart failure, etc.) or response to statin treatment for the prevention of coronary events, samples were genotyped in two clinical trials: the Cholesterol and Recurrent Events (CARE) study (a randomized multicentral double-blinded trial on secondary prevention of acute coronary events with pravastatin; Sacks et al., Am. J. Cardiol. 68: 1436-1446[1991]), and the West of Scotland Coronary Prevention Study (WOSCOPS) study (Shepherd et al., N Eng J Med 333 (20), pp. 1301-7, Nov. 16, 1995; Packard et al., N Eng J Med 343 (16), pp. 1148-55, Oct. 19, 2000).
A well-documented myocardial infarction (MI) was one of the enrollment criteria for entry into the CARE study. Patients were enrolled in the CARE trial from 80 participating study centers. […] Patients were randomized to receive either 40 mg of pravastatin once daily or a matching placebo. The primary endpoint of the trial was death from coronary heart disease and the median duration of follow-up was 5.0 years (range, 4.0 to 6.2 years). All individuals included in the study had signed informed consent forms and the study protocol was approved by the respective Institutional Review Boards (IRBs).
For genotyping SNPs in CARE patient samples, DNA was extracted from blood samples using conventional DNA extraction methods such as the QIAamp kit from Qiagen. Genotypes were obtained by a method similar to that described by Lannone (M. A. Lannone et al., Cytometry 39(2):131-140 [Feb. 1, 2000]; also described in section “SNP DETECTION REAGENTS,” supra). Briefly, target DNA was amplified by multiplex PCR, the amplified product was submitted to a multiplex oligo ligation assay (OLA), the specific ligated products were hybridized to unique universal “ZIP code” oligomer sequences covalently attached to Luminex xMAP® Multi-Analyte COOH Microspheres, and these hybridization products/microspheres were detected in a rapid automated multiplex system using the Luminex 100 instrument. Alternatively, allele specific primers were designed for detecting each SNP and genotypes were obtained on an ABI PRISM® 7900HT Sequence Detection PCR system (Applied Biosystems) by allele-specific PCR, similar to the method described by Germer et al (Germer S., Holland M. J., Higuchi R. 2000, Genome Res. 10: 258-266). […]
In analyzing the CARE patients, statistical analysis was performed with SAS version 9. Cox proportional hazard models (Wald tests) were used in CARE to assess the association of genotype with both the risk of incident MI in the placebo arm and the effect of on MI pravastatin compared to placebo in subgroups defined by genotypes. In analyzing the WOSCOPS patients, a conditional logistic regression model was used in WOSCOPS given that the controls had been previously matched to the cases. The column entitled “On-trial MI” lists the number of patients who suffered an RMI during the clinical trial period.
An additional 175 markers were analyzed in samples from the CARE study (secondary MI prevention trial). […] Of the cases, 150 received placebo treatment and 114 received pravastatin; of the controls, 1290 received placebo and 1359 received pravastatin.
The genotypes for each SNP were tested for association with RMI. This genotypic test of association (i.e., minor homozygote genotype vs. major, and heterozygote vs. major) was performed separately for placebo-treated patients and for all patients unstratified by treatment group, using the Fisher's exact method. […] The reliability of the OR for each particular SNP is confirmed by its respective 95% confidence interval (CI) and P value, also shown. From Table 14 one can see the association of several SNPs with MI risk when they are present in a Homozygous Minor genotype (association based on an OR>1, the lower limit of the 95% CI>1 and a P value <0.05). […]

[2] = system: animal models and myocyte cultures; conditions: compared to other hydrophobic statins; cited from earlier work
[3] = marker hCV2741051, heterozygous
[4] = marker hCV2741051, major homozygous
[5] = marker hCV2741051, minor homozygous
[6] = marker hCV25745415, heterozygous
[7] = marker hCV25745415, major homozygous
[8] = marker hCV25745415, minor homozygous

CC[C@H](C)C(=O)O[C@H]1C[C@H](O)C=C2C=C[C@H](C)[C@H](CC[C@@H](O)C[C@@H](O)CC(=O)O)[C@H]21 [pravastatin]
HR, on-trial MI, Unadjusted ([1]; KIF6 hCV3054799 AA): 0.86
HR, on-trial MI, Adjusted ([1]; KIF6 hCV3054799 AA): 0.80
HR, on-trial MI, Unadjusted ([1]; KIF6 hCV3054799 GG + GA): 0.63
HR, on-trial MI, Adjusted ([1]; KIF6 hCV3054799 GG + GA): 0.63
OR_dom, risk of RMI ([1]; marker hCV465412, Dominant): 0.50
OR_het, risk of RMI ([1]; marker hCV465412, Heterozygous): 0.47
OR_maj, risk of RMI ([1]; marker hCV465412, Major Homozygous): 0.80
OR_min, risk of RMI ([1]; marker hCV465412, Minor Homozygous): 1.35
OR, risk of RMI ([1]; marker hCV881283, heterozygous): 0.19
OR, risk of RMI ([1]; marker hCV881283, major homozygous): 0.76
OR, risk of RMI ([1]; marker hCV881283, minor homozygous): 0.00
OR, risk of RMI ([1]; marker hCV1603656, heterozygous): 0.33
OR, risk of RMI ([1]; marker hCV1603656, major homozygous): 0.87
OR, risk of RMI ([1]; marker hCV1603656, minor homozygous): 0.00
OR_dom, risk of RMI ([1]; marker hCV2741051, Dominant): 1.07
OR, risk of RMI [1, 3]: 1.02
OR_het, risk of RMI [1, 3]: 1.02
OR, risk of RMI [1, 4]: 0.55
OR_maj, risk of RMI [1, 4]: 0.55
OR, risk of RMI [1, 5]: 1.68
OR_min, risk of RMI [1, 5]: 1.68
OR_dom, risk of RMI ([1]; marker hCV3054799, Dominant): 0.65
OR_het, risk of RMI ([1]; marker hCV3054799, Heterozygous): 0.57
OR_maj, risk of RMI ([1]; marker hCV3054799, Major Homozygous): 0.98
OR_min, risk of RMI ([1]; marker hCV3054799, Minor Homozygous): 1.00
OR_dom, risk of RMI ([1]; marker hCV7514870, Dominant): 0.69
OR_het, risk of RMI ([1]; marker hCV7514870, Heterozygous): 0.83
OR_maj, risk of RMI ([1]; marker hCV7514870, Major Homozygous): 0.80
OR_min, risk of RMI ([1]; marker hCV7514870, Minor Homozygous): 0.37
OR_dom, risk of RMI ([1]; marker hCV11450617, Dominant): 0.62
OR_het, risk of RMI ([1]; marker hCV11450617, Heterozygous): 0.61
OR_maj, risk of RMI ([1]; marker hCV11450617, Major Homozygous): 0.78
OR_min, risk of RMI ([1]; marker hCV11450617, Minor Homozygous): 0.68
OR, risk of RMI ([1]; marker hCV12107274, heterozygous): 0.78
OR, risk of RMI ([1]; marker hCV12107274, major homozygous): 0.55
OR, risk of RMI ([1]; marker hCV12107274, minor homozygous): 1.75
OR, risk of RMI ([1]; marker hCV15965459, heterozygous): 0.35
OR, risk of RMI ([1]; marker hCV15965459, major homozygous): 0.82
OR, risk of RMI ([1]; marker hCV15965459, minor homozygous): 0.95
OR_dom, risk of RMI ([1]; marker hCV15973230, Dominant): 0.91
OR_het, risk of RMI ([1]; marker hCV15973230, Heterozygous): 0.91
OR_maj, risk of RMI ([1]; marker hCV15973230, Major Homozygous): 0.60
OR_min, risk of RMI ([1]; marker hCV15973230, Minor Homozygous): 0.71
OR, risk of RMI ([1]; marker hCV15974589, heterozygous): 0.67
OR, risk of RMI ([1]; marker hCV15974589, major homozygous): 0.43
OR, risk of RMI ([1]; marker hCV15974589, minor homozygous): 1.51
OR, risk of RMI ([1]; marker hCV16054991, heterozygous): 0.53
OR, risk of RMI ([1]; marker hCV16054991, major homozygous): 0.88
OR, risk of RMI ([1]; marker hCV16054991, minor homozygous): 0.43
OR, risk of RMI ([1]; marker hCV25472673, heterozygous): 0.61
OR, risk of RMI ([1]; marker hCV25472673, major homozygous): 1.13
OR, risk of RMI ([1]; marker hCV25472673, minor homozygous): 0.49
OR, risk of RMI ([1]; marker hCV25623506, heterozygous): 3.29
OR, risk of RMI ([1]; marker hCV25623506, major homozygous): 0.65
OR, risk of RMI ([1]; marker hCV25623506, minor homozygous): 0.00
OR_dom, risk of RMI ([1]; marker hCV25745415, Dominant): 0.92
OR, risk of RMI [1, 6]: 0.73
OR_het, risk of RMI [1, 6]: 0.73
OR, risk of RMI [1, 7]: 0.56
OR_maj, risk of RMI [1, 7]: 0.56
OR, risk of RMI [1, 8]: 5.87
OR_min, risk of RMI [1, 8]: 5.87
OR, risk of RMI ([1]; marker hCV25749177, heterozygous): 0.74
OR, risk of RMI ([1]; marker hCV25749177, major homozygous): 0.57
OR, risk of RMI ([1]; marker hCV25749177, minor homozygous): 2.81
OR_dom, risk of RMI ([1]; marker hCV25963691, Dominant): 0.64
OR_het, risk of RMI ([1]; marker hCV25963691, Heterozygous): 0.62
OR_maj, risk of RMI ([1]; marker hCV25963691, Major Homozygous): 0.71
OR_min, risk of RMI ([1]; marker hCV25963691, Minor Homozygous): 0.72
Risk Reduction by Statin (Pravastatin vs. Placebo) OR [1]: approximately 0.5
Risk Reduction by Statin (Pravastatin vs. Placebo) OR ([1]; listed as Pravastatin): 0.54
myopathic potential [2]: low myopathic potential
